From article PMC11950852, “Diversity Scale of Library Matters: Impact of mRNA Library Diversity Scales on the Discovery of Macrocyclic Peptides Targeting a Protein by the RaPID System” (ACS Central Science, 2025)
Where a SMILES comes first, the peptide text is derived from it. Bridges are numbered along the chain shown (N, C = ends). Where no end group is shown, it is not given here. [ ]: non-standard residue; d: D form.

T1: ectodomain of MET fused to Fc (UniProt P08581 25-932)
T1 chain: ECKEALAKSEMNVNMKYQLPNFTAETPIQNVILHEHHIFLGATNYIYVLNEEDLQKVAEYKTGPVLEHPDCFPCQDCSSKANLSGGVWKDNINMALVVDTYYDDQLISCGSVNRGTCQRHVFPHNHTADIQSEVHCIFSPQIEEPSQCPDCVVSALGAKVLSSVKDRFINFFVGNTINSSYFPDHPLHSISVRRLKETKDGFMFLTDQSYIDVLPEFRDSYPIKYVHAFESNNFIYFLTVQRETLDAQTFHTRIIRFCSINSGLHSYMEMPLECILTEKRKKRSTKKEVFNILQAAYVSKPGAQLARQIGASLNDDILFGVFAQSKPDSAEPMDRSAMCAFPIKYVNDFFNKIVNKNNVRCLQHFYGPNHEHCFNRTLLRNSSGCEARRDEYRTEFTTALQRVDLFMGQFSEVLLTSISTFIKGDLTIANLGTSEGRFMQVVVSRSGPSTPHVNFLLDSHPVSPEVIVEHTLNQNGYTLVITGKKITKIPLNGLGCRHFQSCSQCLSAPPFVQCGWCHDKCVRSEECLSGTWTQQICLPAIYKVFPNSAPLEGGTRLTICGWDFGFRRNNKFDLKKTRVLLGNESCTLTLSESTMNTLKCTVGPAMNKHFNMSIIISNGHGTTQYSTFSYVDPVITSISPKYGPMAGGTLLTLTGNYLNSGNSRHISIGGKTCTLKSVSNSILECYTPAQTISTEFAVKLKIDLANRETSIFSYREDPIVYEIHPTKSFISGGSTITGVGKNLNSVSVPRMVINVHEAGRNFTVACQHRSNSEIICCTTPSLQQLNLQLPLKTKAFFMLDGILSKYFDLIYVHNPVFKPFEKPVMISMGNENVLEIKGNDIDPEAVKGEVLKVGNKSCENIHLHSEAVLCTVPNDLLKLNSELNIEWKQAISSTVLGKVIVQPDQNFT

B1: 12–2 (peptide)
chain: {CH2CO}-YYSWSGNVSESVKWNSCG-NH2
modifications: thioether N-17
SMILES: CC(C)[C@@H]1NC(=O)[C@H](CC(N)=O)NC(=O)CNC(=O)[C@H](CO)NC(=O)[C@H](Cc2c[nH]c3ccccc23)NC(=O)[C@H](CO)NC(=O)[C@H](Cc2ccc(O)cc2)NC(=O)[C@H](Cc2ccc(O)cc2)NC(=O)CSC[C@@H](C(=O)NCC(N)=O)NC(=O)[C@H](CO)NC(=O)[C@H](CC(N)=O)NC(=O)[C@H](Cc2c[nH]c3ccccc23)NC(=O)[C@H](CCCCN)NC(=O)[C@H](C(C)C)NC(=O)[C@H](CO)NC(=O)[C@H](CCC(=O)O)NC(=O)[C@H](CO)NC1=O

Key:
[1] = molecular target: Fc-fused MET (His-/hFc-tagged human MET ectodomain) (Homo sapiens, UniProt P08581); experiment: SPR binding kinetics of selected macrocyclic peptides to Fc-fused MET; conditions: for Kd / kd / ka / kd (quoted in text): SPR conditions as E1; for Kd: 1:1 binding model; for kon: pH 7.4, read-out: ka
[2] = molecular target: T1, ectodomain of MET fused to Fc; experiment: SPR

| Molecule | Kd [1] | kd [1] | kon [1] | ka [1] | kd (quoted in text) [1] | koff [2] |
| --- | --- | --- | --- | --- | --- | --- |
| CC(C)[C@@H]1NC(=O)[C@H](CCC(=O)O)NC(=O)[C@H](Cc2c[nH]cn2)NC(=O)[C@H]([C@@H](C)O)NC(=O)[C@H](CCCNC(=N)N)NC(=O)[C@H](CCCNC(=N)N)NC(=O)[C@H](CC(N)=O)NC(=O)[C@H](Cc2ccccc2)NC(=O)[C@H](CCC(N)=O)NC(=O)[C@H](CCCNC(=N)N)NC(=O)[C@@H](Cc2ccc(O)cc2)NC(=O)CSC[C@@H](C(=O)NCC(N)=O)NC(=O)[C@H](CC(=O)O)NC(=O)[C@H](CCCNC(=N)N)NC(=O)[C@H](CC(N)=O)NC(=O)[C@H](Cc2c[nH]c3ccccc23)NC1=O [aMD4, reference compound] ({CH2CO}-[dY]RQFNRRTHEVWNRDCG-NH2; thioether N-16) | 3.67 nM | 0.00676 s⁻¹ | 1.84e+06 M⁻¹ s⁻¹ | – | – | – |
| CC(C)C[C@@H]1NC(=O)[C@H](Cc2ccc(O)cc2)NC(=O)CSC[C@@H](C(=O)NCC(N)=O)NC(=O)[C@H](CC(=O)O)NC(=O)[C@H](C(C)C)NC(=O)[C@H](Cc2ccc(O)cc2)NC(=O)[C@H](C(C)C)NC(=O)[C@H](Cc2c[nH]c3ccccc23)NC(=O)[C@H](CC(=O)O)NC(=O)[C@H](CCCCN)NC(=O)[C@H](CC(N)=O)NC(=O)[C@H](CC(=O)O)NC(=O)[C@H](Cc2ccc(O)cc2)NC(=O)[C@H](CCCCN)NC(=O)[C@H](Cc2c[nH]cn2)NC(=O)[C@H](Cc2c[nH]c3ccccc23)NC(=O)[C@H](CC(C)C)NC1=O [10-5] ({CH2CO}-YLLWHKYDNKDWVYVDCG-NH2; thioether N-17) | – | 0.00694 s⁻¹ | 356000 M⁻¹ s⁻¹ | – | – | – |
| CC(C)C[C@@H]1NC(=O)[C@H](Cc2ccc(O)cc2)NC(=O)[C@H](Cc2c[nH]c3ccccc23)NC(=O)[C@H](CO)NC(=O)[C@H](Cc2ccc(O)cc2)NC(=O)CSC[C@@H](C(=O)NCC(N)=O)NC(=O)[C@H](Cc2ccccc2)NC(=O)[C@H](CCC(=O)O)NC(=O)[C@H](Cc2ccccc2)NC(=O)[C@H](CCCCN)NC(=O)[C@H](CCCCN)NC(=O)[C@H](Cc2c[nH]c3ccccc23)NC(=O)[C@H](CCC(N)=O)NC(=O)[C@H](C)NC(=O)[C@H](CCC(N)=O)NC(=O)[C@H](Cc2c[nH]c3ccccc23)NC(=O)[C@H](CC(N)=O)NC1=O [6-1] ({CH2CO}-YSWYLNWQAQWKKFEFCG-NH2; thioether N-17) | 212 nM | 0.0518 s⁻¹ | 244000 M⁻¹ s⁻¹ | 2.44 × 10^5 M^–1 s^–1 | 51.8 × 10^–3 s^–1 | – |
| CC(C)[C@@H]1NC(=O)[C@H](CO)NC(=O)CNC(=O)[C@H](CO)NC(=O)[C@H](Cc2c[nH]c3ccccc23)NC(=O)[C@H](CO)NC(=O)[C@H](Cc2ccc(O)cc2)NC(=O)[C@H](Cc2ccc(O)cc2)NC(=O)CSC[C@@H](C(=O)NCC(N)=O)NC(=O)[C@H](CO)NC(=O)[C@H](CC(N)=O)NC(=O)[C@H](Cc2c[nH]c3ccccc23)NC(=O)[C@H](CCCCN)NC(=O)[C@H](C(C)C)NC(=O)[C@H](CO)NC(=O)[C@H](CCC(=O)O)NC(=O)[C@H](CO)NC1=O [10-1] ({CH2CO}-YYSWSGSVSESVKWNSCG-NH2; thioether N-17) | 10.1 nM | 0.00878 s⁻¹ | 871000 M⁻¹ s⁻¹ | – | ~10 × 10^–3 s^–1 | – |
| CC[C@H](C)[C@@H]1NC(=O)[C@H](Cc2ccc(O)cc2)NC(=O)CSC[C@@H](C(=O)NCC(N)=O)NC(=O)[C@H](CCCNC(=N)N)NC(=O)[C@H](C(C)C)NC(=O)[C@H](Cc2ccc(O)cc2)NC(=O)[C@H](C(C)C)NC(=O)[C@H](Cc2c[nH]c3ccccc23)NC(=O)[C@H](CO)NC(=O)[C@H](CCCCN)NC(=O)[C@H](CO)NC(=O)[C@H](CC(=O)O)NC(=O)[C@H](Cc2ccc(O)cc2)NC(=O)[C@H](C(C)C)NC(=O)[C@H](Cc2ccc(O)cc2)NC(=O)[C@H](Cc2c[nH]c3ccccc23)NC(=O)[C@H](CCC(=O)O)NC1=O [14-6] ({CH2CO}-YIEWYVYDSKSWVYVRCG-NH2; thioether N-17) | – | 0.00564 s⁻¹ | 179000 M⁻¹ s⁻¹ | – | – | – |
| CC[C@H](C)[C@@H]1NC(=O)[C@H](CCCCN)NC(=O)[C@@H](NC(=O)[C@H](CCC(=O)O)NC(=O)[C@@H](NC(=O)[C@H](Cc2c[nH]c3ccccc23)NC(=O)[C@H](CC(C)C)NC(=O)[C@@H]2CSCC(=O)N[C@@H](Cc3ccc(O)cc3)C(=O)N[C@@H](CC(N)=O)C(=O)N2)C(C)C)CSSC[C@@H](C(=O)NCC(N)=O)NC(=O)[C@H](CCCNC(=N)N)NC(=O)CNC(=O)[C@H](CC(N)=O)NC(=O)[C@@H]2CCCN2C(=O)[C@H](CC(C)C)NC(=O)[C@H](C(C)C)NC1=O [12-4] ({CH2CO}-YNCLWVECKIVLPNGRCG-NH2; disulfide 8-17; thioether N-3) | – | 0.00721 s⁻¹ | 456000 M⁻¹ s⁻¹ | – | 7.21 × 10^–3 s^–1 | – |
| CC(C)C[C@@H]1NC(=O)[C@H](CO)NC(=O)[C@H](Cc2c[nH]c3ccccc23)NC(=O)[C@H](CC(N)=O)NC(=O)[C@H](CCCCN)NC(=O)[C@H](CO)NC(=O)[C@H](CC(=O)O)NC(=O)[C@H](Cc2ccccc2)NC(=O)[C@H](CCC(=O)O)NC(=O)[C@H](CO)NC(=O)[C@H](Cc2c[nH]c3ccccc23)NC(=O)[C@H](CO)NC(=O)[C@H](CC(C)C)NC(=O)[C@H](Cc2ccc(O)cc2)NC(=O)CSC[C@@H](C(=O)NCC(N)=O)NC(=O)[C@H](Cc2ccc(O)cc2)NC(=O)[C@H](C)NC1=O [14-3] ({CH2CO}-YLSWSEFDSKNWSLAYCG-NH2; thioether N-17) | – | 0.00297 s⁻¹ | 84900 M⁻¹ s⁻¹ | – | – | – |
| CC(C)C[C@@H]1NC(=O)[C@H](CO)NC(=O)[C@H](Cc2ccccc2)NC(=O)[C@H](Cc2ccc(O)cc2)NC(=O)[C@H](Cc2c[nH]c3ccccc23)NC(=O)[C@H](CCCCN)NC(=O)[C@H](CCCCN)NC(=O)[C@H](CO)NC(=O)[C@H](CC(=O)O)NC(=O)[C@H](Cc2ccc(O)cc2)NC(=O)[C@H](CCC(=O)O)NC(=O)[C@H](Cc2c[nH]cn2)NC(=O)[C@H](Cc2c[nH]c3ccccc23)NC(=O)[C@H](C(C)C)NC(=O)[C@H](CC(C)C)NC(=O)[C@H](Cc2ccc(O)cc2)NC(=O)CSC[C@@H](C(=O)NCC(N)=O)NC1=O [12-5] ({CH2CO}-YLVWHEYDSKKWYFSLCG-NH2; thioether N-17) | – | 0.002 s⁻¹ | 130000 M⁻¹ s⁻¹ | – | – | – |
| C[C@@H]1NC(=O)CNC(=O)[C@H](Cc2ccc(O)cc2)NC(=O)[C@H](CCC(=O)O)NC(=O)[C@H](CCCCN)NC(=O)[C@H](Cc2c[nH]c3ccccc23)NC(=O)[C@H](CCCNC(=N)N)NC(=O)CNC(=O)[C@H](CC(=O)O)NC(=O)[C@H](Cc2ccccc2)NC(=O)[C@H]([C@@H](C)O)NC(=O)[C@H](Cc2ccc(O)cc2)NC(=O)[C@H](Cc2ccc(O)cc2)NC(=O)[C@H](Cc2c[nH]c3ccccc23)NC(=O)[C@H](Cc2ccc(O)cc2)NC(=O)CSC[C@@H](C(=O)NCC(N)=O)NC(=O)[C@H](C)NC1=O [8-1] ({CH2CO}-YWYYTFDGRWKEYGAACG-NH2; thioether N-17) | 31 nM | 0.0427 s⁻¹ | 1.38e+06 M⁻¹ s⁻¹ | 13.8 × 10^5 M^–1 s^–1 | 42.7 × 10^–3 s^–1 | – |
| CC(C)C[C@@H]1NC(=O)[C@H](Cc2ccc(O)cc2)NC(=O)[C@H](CCC(=O)O)NC(=O)[C@H](CC(=O)O)NC(=O)[C@H](CCCNC(=N)N)NC(=O)[C@H](Cc2ccc(O)cc2)NC(=O)[C@H](Cc2c[nH]c3ccccc23)NC(=O)[C@H](Cc2ccc(O)cc2)NC(=O)[C@H](Cc2ccc(O)cc2)NC(=O)[C@H](Cc2c[nH]c3ccccc23)NC(=O)[C@H](Cc2c[nH]c3ccccc23)NC(=O)[C@H](Cc2ccc(O)cc2)NC(=O)CSC[C@@H](C(=O)NCC(N)=O)NC(=O)[C@H](CCCNC(=N)N)NC(=O)[C@H]([C@@H](C)O)NC(=O)[C@H](CCCNC(=N)N)NC(=O)[C@H](Cc2c[nH]c3ccccc23)NC1=O [10-6] ({CH2CO}-YWWYYWYRDEYLWRTRCG-NH2; thioether N-17) | – | 0.00489 s⁻¹ | 22300 M⁻¹ s⁻¹ | – | – | – |
| B1 | – | – | – | – | – | 0.00413 s⁻¹ |
| {CH2CO}-YWWYYWYRDEYLWRTRCG (thioether N-17 (inferred)) [10–6] | – | – | – | – | – | 0.00489 s⁻¹ |
| {CH2CO}-YIEWNRFNSKLWNCNCCG (thioether N-17; cysteine pairing not given here) [10–4] | – | – | – | – | – | 0.00809 s⁻¹ |
